Values quoted from earlier work, collected in patent US20230036624A1, “RETINOL-BASED COMPOSITION” (L'OREAL, priority 2019, published 2023).

System: human epidermal keratinocytes grown in monolayer culture

CCCCCCCCCCCCCCCC(=O)OC/C=C(C)/C=C/C=C(C)/C=C/C1=C(C)CCCC1(C)C [retinyl palmitate]
effectiveness compared with retinol, measured at the transcriptomic level: less effective than retinol
